What was measured:
[1] = tested on: N-glycosylation in COS-7 cells; experiment: Lectin blots of glycans in treated COS-7 cells; type: cell-based, African green monkey; conditions: COS-7, 0-1000 μM, 24 h
Description: Westernlectin blots: Samples were run on 10% SDS polyacrylamide gels and transferred onto nitrocellulose membranes (Biorad). Membranes were blocked for 1 h in PBS containing 0.1% Tween-20 (PBS-T) containing 1% (unless otherwise stated) bovine serum albumin (BSA), and probed with the appropriate primary antibody or lectin in 1% BSA in PBS-T overnight at 4° C. Blots were washed for 1 hr with PBS-T, and blocked for a further 30 min with 1% BSA in PBS-T at room temperature. They were then probed with the appropriate horseradish peroxidise (HRP)-conjugated secondary antibodyprobe in 1% BSA in PBS-T at room temperature for 1 h, followed by washing in PBS-T for 1 h. […]
Antibodieslectins: O-GlcNAc levels were assessed primarily using CTD110.6 (Covance), but RL2 (Abcam) and HGAC85 (Abcam) were also tested. […] OGA levels were assessed using a polyclonal anti-OGA antibody which was a kind gift from Dr. Gerald Hart and OGT levels using H-300 (Santa Cruz Biotechnology). nup62 was probed using mAb 414 (Covance). […]
To assess whether cell surface glycosylation could be affected through changes in UDP-GlcNAc availability or inhibition of GlcNAc transferases within the secretory pathway, we treated COS-7 cells with a range of Ac-5SGlcNAc concentrations and evaluated the effect on various glycans using lectin blots. […]

[2] = tested on: CHO cells; experiment: Cell proliferation growth curves over 5 days, CHO cells; type: cell-based, Chinese hamster; conditions: 50 μM
Description: (A) Cell proliferation curves over the course of 5 days for CHO cells following no (circles), 50 μM Ac-GlcNAc (squares) or 50 μM Ac-5SGlcNAc (triangles) treatment. The error bars indicate the deviation from the mean for triplicate measurements. […] Upper panel, probed with anti-O-GlcNAc antibody (CTD110.6); lower panel, probed with anti-actin antibody. (B) Cell proliferation curves over the course of 5 days for EMEG heterozygous mouse embryonic fibroblast cells following no (circles), 50 μM Ac-GlcNAc (squares) or 50 μM Ac-5SGlcNAc (triangles) treatment. The error bars indicate the deviation from the mean for triplicate measurements. […] Upper panel, probed with anti-O-GlcNAc antibody (CTD110.6); lower panel, probed with anti-actin antibody. (C) Western blots of CHO cell lysates following no (C) or Ac-5SGlcNAc administration at 50 μM for 4 days. Probed with (from top to bottom) anti-Spl antibody, anti O-GlcNAc (CTD110.6) antibody and anti-actin antibody. Full blot of the anti-Sp 1 is shown in panel (d). […]
(§1) Cellular responses to Ac-5SGlcNAc (9) treatment and consequent decreases in O-GlcNAc levels were evaluated. […] We quantitatively evaluated cell proliferation and established growth curves over the course of 5 days in both CHO and EMEG32 heterozygous mouse embryonic fibroblast cells treated with 50 μM Ac-5SGlcNAc (9), 50 μM Ac-GlcNAc (G), or vehicle (FIGS. 5A-B).

[3] = tested on: EMEG32 heterozygous mouse embryonic fibroblast cells; experiment: Cell proliferation growth curves over 5 days and western blot, EMEG32 heterozygous fibroblasts; type: cell-based; conditions: 50 μM, 5 days
Description: (A) Cell proliferation curves over the course of 5 days for CHO cells following no (circles), 50 μM Ac-GlcNAc (squares) or 50 μM Ac-5SGlcNAc (triangles) treatment. The error bars indicate the deviation from the mean for triplicate measurements. […] Upper panel, probed with anti-O-GlcNAc antibody (CTD110.6); lower panel, probed with anti-actin antibody. (B) Cell proliferation curves over the course of 5 days for EMEG heterozygous mouse embryonic fibroblast cells following no (circles), 50 μM Ac-GlcNAc (squares) or 50 μM Ac-5SGlcNAc (triangles) treatment. The error bars indicate the deviation from the mean for triplicate measurements. […] Upper panel, probed with anti-O-GlcNAc antibody (CTD110.6); lower panel, probed with anti-actin antibody. (C) Western blots of CHO cell lysates following no (C) or Ac-5SGlcNAc administration at 50 μM for 4 days. Probed with (from top to bottom) anti-Spl antibody, anti O-GlcNAc (CTD110.6) antibody and anti-actin antibody. Full blot of the anti-Sp 1 is shown in panel (d). (D) Western blots of CHO cell lysates following no (C) or Ac-5SGlcNAc administration at 50 μM for 4 days. The full blot probed with anti-Spl antibody is shown. (E) Western blots of COS-7 cell lysates following no (C) or 50 μM Ac-5SGlcNAc treatment for 24 h. Following treatment, the media was replaced with no inhibitor, and cells were harvested at the time points indicated (between 0 and 24 h). Upper panel, probed with anti-O-GlcNAc antibody (CTD110.6); lower panel, probed with anti-actin antibody.
as §1

[4] = tested on: O-GlcNAc levels in mice tissues; experiment: O-GlcNAc levels in mouse tissues after intraperitoneal dosing; type: in vivo; conditions: 300 mg/kg intraperitoneally, 16 hours
Description: Ac-5SGlcNAc 9 and the deprotected analogue with the hexyl substituent at the C2 position 28 have been analyzed for effectiveness at decreasing O-GlcNAc levels in mice. Pilot studies were conducted with mice dosed in triplicate with either compound or vehicle alone. Compounds were dosed at 300 mg/kg intraperitoneally using 75% DMSO as vehicle for delivery of 9 and phosphate-buffered saline (PBS) for delivery of 28. Mice were euthanized using a CO2 chamber after 16 hours exposure to either compound, and tissues (liver, lung, heart, kidney, spleen, pancreas, brain, blood, fat and muscle) harvested and flash frozen in liquid nitrogen. Frozen tissues were ground using a pestle and mortar, and resuspended in cell lysis buffer (50 mM NaH2PO4, 150 mM NaCl, 0.1% SDS, 1% NP-40, 0.25% sodium deoxycholate, 1 mM EDTA, 30 mM sodium fluoride, 30 mM β-glycerophosphate, 5 mM sodium pyrophosphate, 1 mM Thiamet-G, protease inhibitor cocktail (Roche)) at a concentration of 100 mg tissue1 mL buffer prior to homogenization. Homogenates were centrifuged at 13,000 rpm for 20 min, the supernatant removed, added to 2×SDS-PAGE loading buffer and boiled for […]. SDS-PAGE and western blots were performed using standard procedures. Blots were probed using anti-O-GlcNAc antibody (CTD110.6, Santa Cruz Biotechnology) and anti-actin antibody for a loading control.

In the case of CC(=O)NC1C(OC(C)=O)SC(COC(C)=O)C(OC(C)=O)C1OC(C)=O [Compound 9, N-Acetyl-1,3,4,6-tetra-O-acetyl-α-D-5-thio-glucosamine], the “glycosylation by lectin blots (ConA, GNA, PHA-L, SNA, MAA)” value [1] is reported as “All lectins tested showed no change in glycosylation”, the growth rate [2] is reported as “indistinguishable from those of Ac-GlcNAc (G) and vehicle treated cells” and the growth rate ([3]; EMEG32 heterozygotes) is reported as “indistinguishable but were both lower than vehicle treated cells”. For the same molecule, the “O-GlcNAc levels at last time point of growth curve” value ([3]; EMEG heterozygous cells) was “O-GlcNAc levels are still significantly decreased in cells treated with Ac-5SGlcNAc” and the “O-GlcNAc levels in tissues” value [4] was “effective at decreasing O-GlcNAc levels during the 16 hour dosing period in the liver, lung, heart, kidney, spleen, pancreas, fat and muscle”.

— patent US20150259371A1, “METHODS AND COMPOUNDS FOR INHIBITING GLYCOSYLTRANSFERASES” (SIMON FRASER UNIVERSITY, priority 2010, published 2015)
